Results: PubChem BioAssay AID328 (DTP/NCI, 2004)
“And” between values parts separate entries of the source, which are not always exact repeats. Identical values can stand only once. Toxic doses and inconclusive results are not listed. Rule for the calls: active = survival T/C of 150% or more; inactive = T/C below 125% in these data.

Tested on: BDF1 mice, P388 leukemia ip, median survival T/C
Test: NCI In Vivo Anticancer Drug Screen. Data for tumor model P388 Leukemia (intraperitoneal) in B6D2F1 (BDF1) mice
Conditions: endpoint: median survival time, higher = longer survival
In short: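 Antitumour effect was judged in vivo: survival in drug-treated mice, normalised to that of vehicle-dosed controls, gives the reported T/C.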

[1] = dose: 50.0 mg/kg/injection, schedule: Q01DX009 (ip), vehicle: Klucel (hydroxypropylcellulose) (HPC)
[2] = dose: 6.25 mg/kg/injection, schedule: Q04DX003 (ip), vehicle: water
[3] = dose: 12.5 mg/kg/injection, schedule: Q04DX003 (ip), vehicle: water
[4] = dose: 25.0 mg/kg/injection, schedule: Q04DX003 (ip), vehicle: water
[5] = dose: 50.0 mg/kg/injection, schedule: Q04DX003 (ip), vehicle: water
[6] = dose: 100.0 mg/kg/injection, schedule: Q04DX003 (ip), vehicle: water
[7] = dose: 12.5 mg/kg/injection, schedule: Q01DX009 (ip), vehicle: Klucel (hydroxypropylcellulose) (HPC)
[8] = dose: 25.0 mg/kg/injection, schedule: Q01DX009 (ip), vehicle: Klucel (hydroxypropylcellulose) (HPC)

Measured: T/C

C[S+](C)C
inactive: dose: 12.0 mg/kg/injection, schedule: Q01DX001 (ip), vehicle: saline 100 % of control | dose: 12.5 mg/kg/injection, schedule: Q04DX003 (ip), vehicle: saline 100 % of control | dose: 25.0 mg/kg/injection, schedule: Q01DX001 (ip), vehicle: saline 100 % of control | dose: 25.0 mg/kg/injection, schedule: Q04DX003 (ip), vehicle: saline 100 % of control | dose: 50.0 mg/kg/injection, schedule: Q01DX001 (ip), vehicle: saline 100 % of control | dose: 50.0 mg/kg/injection, schedule: Q04DX003 (ip), vehicle: saline 100 % of control | dose: 100.0 mg/kg/injection, schedule: Q04DX003 (ip), vehicle: saline 111 % of control | dose: 200.0 mg/kg/injection, schedule: Q04DX003 (ip), vehicle: saline 100 % of control | dose: 400.0 mg/kg/injection, schedule: Q04DX003 (ip), vehicle: saline 96 % of control

O=[N+]([O-])c1ccc(N2CC2)c2c1no[n+]2[O-]
inactive: dose: 15.0 mg/kg/injection, schedule: Q04DX003 (ip), vehicle: saline with Tween-80 109 % of control

O=S1(=O)CCN(CCc2ccccc2)CC1
inactive: [1] 94 % of control | dose: 100.0 mg/kg/injection, schedule: Q01DX009 (ip), vehicle: Klucel (hydroxypropylcellulose) (HPC) 90 % of control | dose: 200.0 mg/kg/injection, schedule: Q01DX009 (ip), vehicle: Klucel (hydroxypropylcellulose) (HPC) 96 % of control

C=C1C/C(=C/C)C(=O)O[C@@H]2CCN3CC=C(COC(=O)[C@]1(C)O)[C@H]23
inactive: dose: 25.0 mg/kg/injection, schedule: Q01DX010 (ip), vehicle: carboxymethylcellulose (CMC) 111 % of control | dose: 50.0 mg/kg/injection, schedule: Q01DX010 (ip), vehicle: carboxymethylcellulose (CMC) 111 % of control | dose: 100.0 mg/kg/injection, schedule: Q01DX010 (ip), vehicle: carboxymethylcellulose (CMC) 111 % of control

FC(Cl)(Cl)c1nc2nc(Cl)c(Cl)nc2[nH]1
inactive: dose: 3.12 mg/kg/injection, schedule: Q01DX009 (ip), vehicle: water 104 % of control | dose: 6.25 mg/kg/injection, schedule: Q01DX009 (ip), vehicle: water 107 % of control | [2] 116 % of control | dose: 12.5 mg/kg/injection, schedule: Q01DX009 (ip), vehicle: water 100 % of control | [3] 116 % of control | dose: 25.0 mg/kg/injection, schedule: Q01DX009 (ip), vehicle: water 108 % of control | [4] 102 % of control | dose: 50.0 mg/kg/injection, schedule: Q01DX009 (ip), vehicle: water 118 % of control | [5] 116 % of control | dose: 100.0 mg/kg/injection, schedule: Q01DX009 (ip), vehicle: water 101 % of control | [6] 102 % of control

OC1CC2c3ccccc3C1c1cccc[n+]12 (centres undefined)
inactive: [7] 87 % of control and 91 % of control | [8] 104 % of control | [1] 91 % of control and 100 % of control | dose: 56.25 mg/kg/injection, schedule: Q04DX003 (ip), vehicle: Klucel (hydroxypropylcellulose) (HPC) 100 % of control | dose: 75.0 mg/kg/injection, schedule: Q01DX009 (ip), vehicle: Klucel (hydroxypropylcellulose) (HPC) 100 % of control | dose: 112.5 mg/kg/injection, schedule: Q04DX003 (ip), vehicle: Klucel (hydroxypropylcellulose) (HPC) 108 % of control

COc1cc2cnccc2cc1O
inactive: [2] 97 % of control | [3] 98 % of control | [4] 118 % of control | [5] 95 % of control | [6] 98 % of control

CCOC(=O)c1cnc(N(C)C)[nH]c1=O
inactive: [7] 103 % of control | [8] 95 % of control | [1] 86 % of control

CC(C)COC(=O)C(C)Oc1ccc(Oc2ccc(Cl)cc2)cc1 (centres undefined)
inactive: dose: 50.0 mg/kg/injection, schedule: Q01DX009 (ip), vehicle: saline with Tween-80 98 % of control | dose: 100.0 mg/kg/injection, schedule: Q01DX009 (ip), vehicle: saline with Tween-80 116 % of control | dose: 200.0 mg/kg/injection, schedule: Q01DX009 (ip), vehicle: saline with Tween-80 91 % of control
